The structures appear in SMILES notation.

The values below come from patent US9012460B2, “1-(2-phenoxymethylphenyl)piperazine compounds” (Theravance Biopharma R&D IP, LLC, priority 2010, dated 2015).

In one experiment the target is T1, hSERT (Homo sapiens, UniProt P31645).
T1 construct: expressed in transfected cells; host or cells: HEK-293
Put plainly: hSERT membrane radioligand binding assay (Assay 1). The settings on record: 3H-citalopram, membranes from HEK-293 cells expressing hSERT; read-out: SERT pKi (converted). As for the experimental part: (§1) Membrane radioligand binding assays were used to measure inhibition of labeled ligand (^3H-citalopram or ^3H-nisoxetine or ^3H-WIN35428) binding to membranes prepared from cells expressing the respective human recombinant transporter (hSERT or hNET or hDAT) in order to determine the pKi values of test compounds at the transporters.
(§2) Recombinant human embryonic kidney (HEK-293) derived cell lines stably transfected with hSERT or hNET, respectively, were grown in DMEM medium supplemented with 10% dialyzed FBS (for hSERT) or FBS (for hNET), 100 μg/ml penicillin, 100 μg/ml streptomycin, 2 mM L-glutamine and 250 μg/ml of the aminoglycoside antibiotic G418, in a 5% CO2 humidified incubator at 37° C. When cultures reached 80% confluence, the cells were washed thoroughly in PBS (without Ca^2+ and Mg^2+) and lifted with 5 mM EDTA in PBS. Cells were pelleted by centrifugation, resuspended in lysis buffer (10 mM Tris-HCl, pH7.5 containing 1 mM EDTA), homogenized, pelleted by centrifugation, then resuspended in 50 mM Tris-HCl, pH 7.5 and 10% sucrose at 4° C. Protein concentration of the membrane suspension was determined using a Bio-Rad Bradford Protein Assay kit. Membranes were snap frozen and stored at −80° C. Chinese hamster ovary membranes expressing hDAT (CHO-DAT) were purchased from PerkinElmer and stored at −80° C.
(§3) Binding assays were performed in a 96-well assay plate in a total volume of 200 μL assay buffer (50 mM Tris-HCl, 120 mM NaCl, 5 mM KCl, pH 7.4) with 0.5, 1, and 3 μg membrane protein, for SERT, NET and DAT, respectively.
(§4) Stock solutions (10 mM in DMSO) of test compound were prepared and serial dilutions made using Dilution Buffer (50 mM Tris-HCl, 120 mM NaCl, 5 mM KCl, pH 7.4, 0.1% BSA, 400 μM ascorbic acid).
(§5) Following a 60 minute incubation at 22° C. (or a period sufficient to reach equilibrium), the membranes were harvested by rapid filtration over a 96-well UniFilter GF/B plate, pretreated with 0.3% polyethyleneimine, and washed 6 times with 300 μl wash buffer (50 mM Tris-HCl, 0.9% NaCl, pH 7.5 at 4° C.). Plates were dried overnight at room temperature, ˜45 μl of MicroScint™-20 (Perkin Elmer) added and bound radioactivity quantitated via liquid scintillation spectroscopy. Inhibition curves and saturation isotherms were analyzed using GraphPad Prism Software package (GraphPad Software, Inc., San Diego, Calif.). IC50 values were generated from concentration response curves using the Sigmoidal Dose Response (variable slope) algorithm in Prism GraphPad. Kd and Bmax values for the radioligand were generated from saturation isotherms using the Saturation Binding Global Fit algorithm in Prism GraphPad. pKi (negative decadic logarithm of Ki) values for test compounds were calculated from the best-fit IC50 values, and the Kd value of the radioligand, using the Cheng-Prusoff equation (Cheng & Prusoff (1973) Biochem. Pharmacol. 22(23):3099-3108): Ki=IC50/(1+[L]/Kd), where [L]=concentration radioligand.

Another experiment has as its target T2, hNET (Homo sapiens, UniProt P23975).
T2 construct: expressed in transfected cells; host or cells: HEK-293
Put plainly: hNET membrane radioligand binding assay (Assay 1). The settings on record: 3H-nisoxetine, membranes from HEK-293 cells expressing hNET; read-out: NET pKi (converted). As for the experimental part: as §1, §2, §3, §4, §5

T2 sequence (P23975 whole entry): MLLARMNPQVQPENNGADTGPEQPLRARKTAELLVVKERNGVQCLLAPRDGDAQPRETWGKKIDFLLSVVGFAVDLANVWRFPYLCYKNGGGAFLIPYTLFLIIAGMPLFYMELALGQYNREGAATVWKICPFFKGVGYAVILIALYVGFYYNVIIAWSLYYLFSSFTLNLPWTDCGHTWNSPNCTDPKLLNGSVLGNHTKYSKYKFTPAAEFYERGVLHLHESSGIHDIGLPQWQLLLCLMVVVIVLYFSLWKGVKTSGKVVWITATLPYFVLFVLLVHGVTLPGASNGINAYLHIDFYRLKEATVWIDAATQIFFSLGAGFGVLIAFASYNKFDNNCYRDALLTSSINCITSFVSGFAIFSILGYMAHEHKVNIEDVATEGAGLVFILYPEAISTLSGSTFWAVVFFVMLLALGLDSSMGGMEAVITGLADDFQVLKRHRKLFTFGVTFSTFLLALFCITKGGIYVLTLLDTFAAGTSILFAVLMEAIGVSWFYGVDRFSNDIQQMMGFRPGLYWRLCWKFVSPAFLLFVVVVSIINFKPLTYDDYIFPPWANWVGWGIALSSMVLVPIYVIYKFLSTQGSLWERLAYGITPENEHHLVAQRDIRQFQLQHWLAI
T1 sequence (P31645 whole entry): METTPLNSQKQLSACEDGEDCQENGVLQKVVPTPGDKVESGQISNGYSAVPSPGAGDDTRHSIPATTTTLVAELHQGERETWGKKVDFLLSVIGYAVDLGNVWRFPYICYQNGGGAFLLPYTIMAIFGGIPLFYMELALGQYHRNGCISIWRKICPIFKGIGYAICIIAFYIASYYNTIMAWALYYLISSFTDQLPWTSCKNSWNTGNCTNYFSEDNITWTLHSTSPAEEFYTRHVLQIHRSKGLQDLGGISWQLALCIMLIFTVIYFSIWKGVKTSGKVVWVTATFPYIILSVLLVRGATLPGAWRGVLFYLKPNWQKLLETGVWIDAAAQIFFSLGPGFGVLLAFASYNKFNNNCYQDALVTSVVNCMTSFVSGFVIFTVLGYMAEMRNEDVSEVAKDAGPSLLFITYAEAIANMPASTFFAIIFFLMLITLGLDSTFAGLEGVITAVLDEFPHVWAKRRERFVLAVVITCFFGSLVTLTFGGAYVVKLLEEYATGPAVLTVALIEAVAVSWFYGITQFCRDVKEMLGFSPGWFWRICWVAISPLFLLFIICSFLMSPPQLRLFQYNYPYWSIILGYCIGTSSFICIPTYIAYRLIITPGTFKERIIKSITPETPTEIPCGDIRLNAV

Consider `Ic1cccc(OCc2ccccc2N2CCNCC2)c1` [Example 1, 1-[2-(3-Iodophenoxymethyl)phenyl]piperazine], for which the results for the Ki at hSERT and on hNET were at most 100 nM and at most 0.1 µM, respectively.

For the molecule `Fc1ccccc1OCc1ccccc1N1CCNCC1` [Example 2-1], the Ki is at most 10000 nM at hSERT and at most 0.1 µM at hNET.

Take `Clc1ccccc1OCc1ccccc1N1CCNCC1` [Example 2-2]: the Ki is at most 100 nM at hSERT and at most 10 µM on hNET.

Consider `Ic1ccccc1OCc1ccccc1N1CCNCC1` [Example 2-3], for which the Ki on hSERT is at most 100 nM; on hNET, at most 0.1 µM.

As to `Cc1ccccc1OCc1ccccc1N1CCNCC1` [Example 2-4], the Ki at hSERT is at most 100 nM; on hNET it was at most 10 µM.

On to `CC(C)c1ccccc1OCc1ccccc1N1CCNCC1` [Example 2-5], for which the Ki on hSERT was at most 100 nM; on hNET, at most 10 µM.

Regarding `CCc1ccccc1OCc1ccccc1N1CCNCC1` [Example 2-6], the Ki at hSERT is at most 100 nM; on hNET, at most 10 µM.

On to `COc1ccccc1OCc1ccccc1N1CCNCC1` [Example 2-7], for which the Ki was at most 100 nM at hSERT and at most 10 µM at hNET.

Take `c1ccc(-c2ccccc2OCc2ccccc2N2CCNCC2)cc1` [Example 2-8]: the Ki at hSERT was at most 100 nM; at hNET, at most 10 µM.

As for `c1ccc(Cc2ccccc2OCc2ccccc2N2CCNCC2)cc1` [Example 2-9], the values for the Ki on hSERT and on hNET were at most 100 nM and at most 10 µM, respectively.

Take `c1ccc(Oc2ccccc2OCc2ccccc2N2CCNCC2)cc1` [Example 2-10]: the results for the Ki at hSERT and at hNET were at most 10000 nM and at most 0.1 µM, respectively.

As to `c1ccc(COc2ccccc2OCc2ccccc2N2CCNCC2)cc1` [Example 2-11], the Ki was at most 10000 nM on hSERT and at most 10 µM at hNET.

As for `Brc1cccc(OCc2ccccc2N2CCNCC2)c1` [Example 2-13], the Ki on hSERT is at most 100 nM; on hNET it was at most 0.1 µM.

As for `Cc1cccc(OCc2ccccc2N2CCNCC2)c1` [Example 2-14], the results for the Ki at hSERT and at hNET were at most 100 nM and at most 10 µM, respectively.

For `CC(C)(C)c1cccc(OCc2ccccc2N2CCNCC2)c1` [Example 2-15], the Ki on hSERT is at most 10000 nM; at hNET it was at most 10 µM.

Turning to `COc1cccc(OCc2ccccc2N2CCNCC2)c1` [Example 2-16], the Ki was at most 100 nM at hSERT and at most 10 µM on hNET.

Take `Cc1ccc(OCc2ccccc2N2CCNCC2)cc1` [Example 2-17]: the Ki is at most 10000 nM at hSERT and at most 10 µM on hNET.

In the case of `Fc1c(Cl)cccc1OCc1ccccc1N1CCNCC1` [Example 2-18], the values for the Ki on hSERT and at hNET were at most 100 nM and at most 10 µM, respectively.

Regarding `Clc1cccc(OCc2ccccc2N2CCNCC2)c1Cl` [Example 2-19], the Ki is at most 100 nM on hSERT and at most 10 µM at hNET.

As for `Cc1c(F)cccc1OCc1ccccc1N1CCNCC1` [Example 2-20], the Ki at hSERT was at most 100 nM; at hNET it was at most 10 µM.

For the molecule `Cc1c(Cl)cccc1OCc1ccccc1N1CCNCC1` [Example 2-21], the Ki on hSERT was at most 100 nM; at hNET it was at most 0.1 µM.

For `N#Cc1c(F)cccc1OCc1ccccc1N1CCNCC1` [Example 2-22], the Ki on hSERT was at most 100 nM; at hNET, at most 10 µM.

Regarding `Fc1ccc(F)c(OCc2ccccc2N2CCNCC2)c1` [Example 2-23], the Ki on hSERT is at most 100 nM; at hNET, at most 10 µM.

As to `Fc1ccc(Cl)cc1OCc1ccccc1N1CCNCC1` [Example 2-24], the Ki is at most 100 nM on hSERT and at most 10 µM at hNET.

In the case of `Fc1ccc(Br)cc1OCc1ccccc1N1CCNCC1` [Example 2-25], the Ki is at most 100 nM at hSERT and at most 0.1 µM at hNET.

Consider `Clc1ccc(Cl)c(OCc2ccccc2N2CCNCC2)c1` [Example 2-26], for which the Ki was at most 100 nM at hSERT and at most 10 µM at hNET.

Regarding `Fc1ccc(Cl)c(OCc2ccccc2N2CCNCC2)c1` [Example 2-27], the Ki on hSERT is at most 100 nM; at hNET, at most 10 µM.

Take `Fc1ccc(Br)c(OCc2ccccc2N2CCNCC2)c1` [Example 2-28]: the Ki at hSERT is at most 100 nM; on hNET it was at most 10 µM.

As to `Cc1ccc(F)cc1OCc1ccccc1N1CCNCC1` [Example 2-29], the Ki was at most 100 nM on hSERT and at most 10 µM at hNET.

In the case of `Cc1ccc(Cl)cc1OCc1ccccc1N1CCNCC1` [Example 2-30], the Ki at hSERT was at most 100 nM; on hNET it was at most 0.1 µM.

`COc1ccc(Cl)cc1OCc1ccccc1N1CCNCC1` [Example 2-31]: the Ki on hSERT was at most 100 nM; at hNET it was at most 10 µM.

Regarding `N#Cc1ccc(Cl)cc1OCc1ccccc1N1CCNCC1` [Example 2-32], the Ki at hSERT was at most 100 nM; at hNET it was at most 10 µM.

Regarding `Fc1ccc(OCc2ccccc2N2CCNCC2)cc1F` [Example 2-33], the results for the Ki at hSERT and at hNET were at most 100 nM and at most 0.1 µM, respectively.

Consider `Fc1cc(OCc2ccccc2N2CCNCC2)ccc1Cl` [Example 2-34], for which the Ki was at most 100 nM at hSERT and at most 0.1 µM at hNET.

As to `Clc1ccc(OCc2ccccc2N2CCNCC2)cc1Cl` [Example 2-35], the Ki was at most 100 nM on hSERT and at most 0.1 µM on hNET.

On to `Fc1cc(F)cc(OCc2ccccc2N2CCNCC2)c1` [Example 2-36], for which the Ki on hSERT was at most 100 nM; at hNET, at most 10 µM.

As to `Clc1cc(Cl)cc(OCc2ccccc2N2CCNCC2)c1` [Example 2-37], the Ki is at most 100 nM at hSERT and at most 10 µM at hNET.

Turning to `CC(C)c1cccc(C(C)C)c1OCc1ccccc1N1CCNCC1` [Example 2-38], the Ki on hSERT is at most 10000 nM; at hNET, at most 10 µM.

Turning to `Clc1cc(Cl)c(OCc2ccccc2N2CCNCC2)cc1Cl` [Example 2-39], the figures for the Ki on hSERT and on hNET were at most 100 nM and at most 0.1 µM, respectively.

As to `Clc1cc(Cl)c(Cl)c(OCc2ccccc2N2CCNCC2)c1Cl` [Example 2-40], the results for the Ki at hSERT and at hNET were at most 100 nM and at most 10 µM, respectively.
